Data published in patent US5962516A, “Immunosuppressive compounds and methods” (priority 1999, dated 1999).
Structures can show the parent of a compound that is named as a salt. Where two headings read alike, the source gives them in different places.

Legend:
[1] = test system: IL-1β action on murine thymocytes; assay: Inhibition of IL-1 action (IL-1 assay): suppression of IL-1β + PHA stimulated murine thymocyte proliferation; type: cell-based, mouse (C3H/HeN)
Description: The ability of the above compounds to suppress the cell-proliferative effect of IL-1β in vitro (O'Gara, 1990) was examined as described in Example 11. Mouse thymocytes in culture were stimulated with IL-1β in the presence of phytohemagglutinin (PHA) and increasing concentrations of triptolide (control) and triptolide derivatives. The cells were cultured for 72 hours, and during the last 18 hours, incubated with tritiated thymidine. DNA synthesis was assessed by measuring incorporation of radiolabeled thymidine. The results expressed in terms of IC50 (concentration effective to cause 50% suppression of proliferation) are shown in Table 1.
C3H/HeN mouse thymocytes were prepared and the action of IL-1 together with PHA, which stimulate proliferation of thymocyte, was measured using standard techniques (O'Gara, 1990; Mishell, 1980). Three- to six-week old C3H/HeN male mice (Simonson Laboratory, Gilroy, Calif.) were sacrificed by CO2 inhalation. Thymi were removed, separated from adherent non-thymic tissue, homogenized in Hank's balanced salt solution (HBSS, Gibco) using a glass homogenizer, and centrifuged at 200×g for 10 minutes at 15° C. Following an additional wash in HBSS, the thymocytes were resuspended in RPMI 1640 medium containing 50 uM 2-mercaptoethanol, 2 mM glutamine, 1 mM sodium pyruvate, non-essential amino acids 100 U/ml penicillin, 100 μg/ml streptomycin, and 10% heat-inactivated fetal bovine serum.
Cells were cultured in round-bottom 96 well microtiter tissue culture plates, 6×10^5 cells per well, in a volume of 100 μl. Recombinant human IL-1β (R & D Systems #201-LB) together with Phytohemagglutinin P (PHA, Pharmacia) were added to the cells in volume of 25 μl per well to achieve a final concentration of 0.08 ng/ml and 10 μg/ml, respectively. Samples were dissolved in DMSO (10 mg/ml), then diluted in culture medium. Twenty five microliters of the test sample was added to each well to achieve the final compound concentrations for each experiment. Cells with PHA together with IL-1 served as controls. The total volume for each well was 150 μl.
Plates were incubated at 37° C. in a 5% CO2 incubator for 72 hours. Fifty microliters of culture medium containing 0.5 μCi (^3 H)-thymidine (Amersham, 49 Ci/mmol) was added to each well prior to the last 18 hours of incubation. Cells were then harvested and counted. The results were reported as counts per minute (cpm) per 6×10^5 cells.
The following formula was used to calculate the percent of suppression of IL-1 activity, and IC50 (concentration of sample yielding 50% suppression of proliferation) was used to indicate the suppressive activity of the sample.
% suppression of IL-1 activity=(1-sample cpm/(IL-1+PHA control

[2] = test system: mixed lymphocyte reaction (spleen cells from female C57BL/6 mice, stimulated with Balb/C spleen cells); assay: Mixed lymphocyte reaction (MLR) assay; type: cell-based, mouse; conditions: 50% suppression of proliferation; for IC50: read-out: MLR Assay IC50
Description: Inhibition of cell proliferation by the subject compounds was assayed in the mixed lymphocyte reaction (MLR) (Bradley, 1980; Mishell, 1980). Spleen cells from female C57BL/6 mice, the "responder" cells, were prepared and co-cultured alone or in the presence of varying concentrations of the test compounds, with irradiated spleen cells prepared from female Balb/C mice, the "stimulator" cells. Prior irradiation of the stimulator cells rendered them unable to proliferate. A sample of the responder cells was also irradiated for use as a control. The non-irradiated responder cells proliferate in the presence of the allogenic stimulator cells. After a 78-hour incubation, tritiated thymidine was added to the mixed cell cultures, and incorporation of the labeled nucleotide into DNA was measured as an index of cell proliferation.
In this study, the responder cells (R) were spleen cells from female C57BL16 mice, and the stimulator cells (S) were spleen cells from female Balb/C mice 6 to 8 weeks of age (Jackson, Bar Harbor, Me.). The spleens were aseptically removed from the mice and placed into 10 ml of cold HBSS in a sterile petri dish. The spleen was cut in half and gently pressed between the frosted ends of 2 sterile microslides. The cell suspension was then filtered through sterile nylon mesh (Nytex, Tetco #HD-3-85) into a 15 ml conical polypropylene centrifuge tube and centrifuged at 200×g for 10 minutes in a Beckman GPR tabletop centrifuge (GH-3.7 Rotor). Following an additional wash in HBSS, the spleen cells were resuspended in RPMI 1640 medium (Gibco) containing 50 uM 2-mercaptoethanol, 2 mM glutamine, 100 U/ml penicillin, 100 μg/ml streptomycin and 10% heat-inactivated fetal bovine serum.
The stimulator cells (S) and part of the responder cells (R) were diluted at 10×10^6 cells/ml and irradiated at 20 cGy with a Cesium Irradiator (Department of Radiation Oncology, Stanford University, California) to inhibit proliferation. The irradiated cells were washed once to remove any toxic free radicals and their products resulting from irradiation. The responder cells (R), irradiated stimulator cells (Sx) and irradiated responder cell (Rx) were all diluted to 4×10^6 cells/ml.
In the assay, 4×10^5 cells of R were cocultured with 4×10^5 cells of Sx in 200 μl of medium in round bottom 96 well tissue culture plates. Fifty micro-liters of test samples at various concentrations were added to the cells. The wells receiving no test samples would get the maximum proliferation. Several controls were used in the assay. The irradiated responder cells (Rx) were also added to the responder cells with and without the test samples. Rx or Sx alone were checked to make sure no proliferation occurred after irradiation. The spontaneous proliferation of R was also measured.
The culture plates were incubated at 37° C. in a 5% CO2 incubator for four days. The cells were labelled with 1 μCi of (^3 H)-thymidine (Amersham, 49 Ci/mmol) in 20 μl of medium for the last 18 hours. Cells were then harvested and counted. The results were reported as counts per minute (cpm) per well. Percent of suppression and IC50 (concentration of sample producing 50% suppression of proliferation) were used to indicate the suppressive activity of the sample. Sample cpm was calculated as (R+Sx+sample)cpm-(R+Rx+sample)cpm; control cpm was calculated as (R+Sx)cpm-(R+Rx)cpm. Percent suppression of MLR activity was calculated as (1-sample cpm/control cpm)×100. IC50 was determined from percent suppression to indicate the suppressive activity of the sample.

[3] = 50% suppression of proliferation; 72 h culture
[4] = read-out: IL-1 Assay IC50; 50% suppression of proliferation; 72 h culture

SMILES	IL-1 Assay IC50 [1, 3] [µg/mL]	IC50 [1, 4] [nM]	MLR Assay IC50 [2] [µg/mL]	IC50 [2] [nM]	also measured
CC(C)[C@]12O[C@H]1[C@@H]1O[C@]13[C@]1(O[C@H]1C[C@H]1C4=C(CC[C@@]13C)C(=O)OC4)[C@@H]2O [Triptolide, triptolide, reference compound]	–	–	–	–	inhibition of IL-1β action in words [1]: potent inhibitor of IL-1β action; IC50 ([1]; 50% suppression of proliferation; 72 h culture; read-out: IL-1 Assay IC50): ~5 nM; IC50 ([2]; Mus musculus, Lymphocyte): 0.0009 µg/mL
CC(C)C12OC1C1OC13C1(C)CCC4=C(COC4=O)C1CC1OC13C2OC(=O)CCC(=O)O (stereo not drawn) [YM-274, Triptolide Succinate Sodium Salt]	–	–	–	–	IL-1 Assay IC50 ([1]; 50% suppression of proliferation; 72 h culture; Succinate Sodium Salt): 0.181 µg/mL; IC50 ([1]; read-out: IL-1 Assay IC50; 50% suppression of proliferation; 72 h culture; Succinate Sodium Salt): 376 nM; MLR Assay IC50 ([2]; Succinate Sodium Salt): 0.09 µg/mL; IC50 ([2]; Succinate Sodium Salt): 187 nM
CC(C)C12OC1C1OC13C1(C)CCC4=C(COC4=O)C1CC1OC13C2OC(=O)CCC(=O)O (stereo not drawn) [YM-262, Triptolide Succinate]	0.181	393	0.086	187	–
CC(C)C12OC1C1OC13C1(C)CCC4=C(COC4=O)C1CC1OC13C2OC(=O)CCC(=O)O (stereo not drawn) [YM-273, Triptolide Succinate Tris Salt]	0.462	800	0.18	310	–
